Results published in US12533370B2, “Compositions and methods of potentiating antimicrobials” (priority 2016, dated 2026).
Values after ≈ are worked out from the molar mass of the structure shown.

Assays:
[1] = system: MRSA/VISA clinical strain No 111; assay: MIC and Fic index for gentamicin with and without CBD, Example 9; type: cell-based, Staphylococcus aureus; settings: for MIC value: agent alone
Protocol: (§1) The term “minimal inhibitory concentration” or “MIC” as used herein relates to the minimal concentration of an agent, or a combination of agents, in which bacteria are substantially killed or at least not substantially grow. The cutoff value to determine the MIC in the experimental section was set to an optical density (OD) value of ≤0.1 after an overnight incubation of the bacteria together with the tested antibacterial agent(s).
(§2) Fractional Inhibitory Concentration values (FicA and FicB) and Fic index were calculated for each combination of compounds and clinical isolate using the following standard equations for this analysis: Fic index=FicA+FicB FicA=MIC of compound A (CBG) in combination/MIC of compound A alone. FicB=MIC of compound B (gentamicin) in combination/MIC of compound B alone.
(§3) Synergy is defined as a Fic index value of ≤0.5. Indifference or no interaction will be defined as a FIC index value of >0.5 and <4. Antagonism will be defined as a FIC index value of >4. When the FIC index value is within the range of 0.5-1, the combination is considered to be non-synergistic or additive.
(§4) The goal of the current experiment was to determine the minimal inhibitory concentration (MIC) for gentamicin with and without CBD on methicillin-resistant Staphylococcus aureus (MRSA) and vancomycin-resistant Staphylococcus aureus (MRSA) (VISA) clinical strain No 111 from Souraski Medical Center, Tel Aviv, Israel. The cutoff value to determine the MIC was set to an optical density (OD) value of ≤0.1.
(§5) Fractional Inhibitory Concentration values (FicA and FicB) and Fic index were calculated for each combination of compounds and clinical isolate using the same calculation as in example 7.

[2] = system: MRSA/VISA clinical strain No 111; assay: MIC and Fic index for gentamicin with and without CBG, Example 7; type: cell-based, Staphylococcus aureus; settings: for MIC value: agent alone, OD cutoff ≤0.1
Protocol: as §1
as §4, with “CBG” for “CBD”
as §2, §3

[3] = system: methicillin-resistant Staphylococcus aureus (MRSA) violent clinical strain 760330509; assay: MIC and Fic index for gentamicin with and without CBG, Example 8; type: cell-based; settings: for MIC value: agent alone
Protocol: as §1, §2, §3
as §4, with “CBG” for “CBD”, “violent” for “and vancomycin-resistant Staphylococcus aureus (MRSA) (VISA)”, “760330509” for “No 111”
as §5

[4] = system: S. aureus ATCC strain 25923 (gentamicin-sensitive); assay: Minimal inhibitory concentration (MIC) for gentamicin with and without THC, Example 2; type: cell-based, Staphylococcus aureus; settings: OD cutoff ≤0.1
Protocol: (§6) In certain embodiments, the method of testing the anti-bacterial efficacy of a composition (or any test solution), comprises the following steps: (a) inoculation of bacteria (e.g. from a −80° C. stock) into 3 mL Muller Hinton (MH) medium; (b) incubation of the inoculated medium at 37° C. under agitation of 250 rpm for 18-20 hours, thus obtaining a starter culture; (c) diluting the starter culture using saline to obtain working cultures of 5*10^5 or 10^6 bacteria/mL; (d) combining the […] and the tested composition in a test container, e.g. a 96-well plate; (e) incubating the test container at 37° C. under shaking (100 rpm) for 18-20 hours; and (f) determining the viability of bacteria in the test container, thus determining the anti-bacterial efficacy of the composition, e.g. via determining the optical density (OD) of the bacterial culture. Routine calibrations and/or modifications of this method are well within the capabilities of any person of average skill in the art.
(§7) The term “minimal inhibitory concentration” or “MIC” as used herein relates to the minimal concentration of an agent, or a combination of agents, in which bacteria are substantially killed or at least not substantially grow. […]

[5] = system: Streptococcus pneumoniae; assay: MIC for carbenicillin with and without THC, Example 6; type: cell-based; settings: agent alone, OD cutoff ≤0.1
Protocol: as §6, §7

[6] = system: established S. aureus ATCC strain 25923 (gentamicin-sensitive) biofilm; assay: MIC for gentamicin with and without THC on established biofilm, Example 10; type: cell-based, Staphylococcus aureus; settings: agent alone; OD cutoff ≤0.1
Protocol: as §1
The goal of the current experiment was to determine the minimal inhibitory concentration (MIC) for gentamicin with and without THC on an established S. aureus ATCC strain 25923 (gentamicin-sensitive) biofilm. The cutoff value to determine the MIC was set to an optical density (OD) value of ≤0.1.

[7] = system: methicillin-resistant Staphylococcus aureus (MRSA); assay: MIC for gentamicin with and without THC on MRSA, Example 4; type: cell-based
Protocol: as §6, §7

[8] = system: S. aureus ATCC strain 25923 (gentamicin-sensitive); assay: Minimal bactericidal concentration (MBC), Example 1; type: cell-based, Staphylococcus aureus
Protocol: The goal of the current experiment was to determine the minimal bactericidal concentrations (MBC) for THC with and without PEA on S. aureus ATCC strain 25923 (gentamicin-sensitive).
• 1. Incubation of the S. aureus (from a −80° C. stock) in 3 ml Muller Hinton (MH, Difco) medium at 37° C. under agitation of 250 rpm for 18-20 hours (this culture served as a starter for the experiment); • 2. Dilution of the starter culture using saline to obtain working cultures of 5*10^5 and 10^6 C.F.U/mL bacteria, respectively. • 3. Diluting the THC (0.125 mg/mL in saline) with or without PEA or gentamicin in a 96-well plate. • 4. Incubation of the plates at 37° C. under shaking (100 rpm) for 18-20 hours. • 5. In the following day, the bacteria in the wells suspended in saline were evaluated for their C.F.U/mL to determine the MBC.

[9] = system: S. aureus ATCC strain 25923 (gentamicin-sensitive); assay: MIC for gentamicin with and without THC, Example 3; type: cell-based, Staphylococcus aureus; settings: OD cutoff ≤0.1
Protocol: as §6, §7

[10] = system: methicillin-resistant Staphylococcus aureus (MRSA); assay: MIC for ampicillin with and without THC on MRSA, Example 5; type: cell-based; settings: read-out: MIC value
Protocol: as §6, §7

[11] = Staphylococcus aureus, read-out: MIC value
[12] = Staphylococcus aureus, ATCC25923, agent alone

Compound: C=C(C)[C@@H]1CCC(C)=C[C@H]1c1c(O)cc(CCCCC)cc1O [CBD, cannabidiol]
- FicA value (MIC of CBD in combination/MIC alone) ([1]; 32 μg/mL Gen.+1 μg/mL CBD): 0.125
- MIC ([1]; Staphylococcus aureus, read-out: MIC value, agent alone, MRSA/VISA strain No 111, OD cutoff ≤0.1): ~8 µg/mL

Compound: CCCCCc1cc(O)c(C/C=C(\C)CCC=C(C)C)c(O)c1 [CBG, cannabigerol]
- FicA value (MIC of CBG in combination/MIC alone) ([2]; 64 μg/mL Gen.+1 μg/mL CBG): 0.125
- MIC value for CBG alone ([2]; MRSA/VISA strain No 111): about 8 n g/mL
- MIC [2, 11]: 8 µg/mL
- FicA value (MIC of CBG in combination/MIC alone) ([3]; 32 μg/mL Gen.+1 μg/mL CBG): 0.125
- MIC ([3]; Staphylococcus aureus, MRSA, read-out: MIC value, agent alone, MRSA strain 760330509, OD cutoff ≤0.1): ~8 µg/mL

Compound: CCCCCc1cc(O)c2c(c1)OC(C)(C)[C@@H]1CCC(C)=C[C@@H]21 [THC, tetrahydrocannabinol]
- MIC [4, 12]: ~1 µg/mL
- MIC [5]: ~2 µg/mL
- MIC value on established biofilm [6]: about 0.004 mg/mL
- MIC [7, 11]: ~2 µg/mL
- MBC ([8]; Staphylococcus aureus, ATCC25923, agent alone, S. aureus ATCC 25923): ~7.8 µg/mL (≈ 24.8 µM)
- fold decrease of MBC compared to gentamicin alone ([8]; THC alone vs gentamicin alone): 32 fold
- MIC [9, 12]: ~2 µg/mL
- MIC [10]: ~2 µg/mL

Compound: CC1(C)S[C@@H]2[C@H](NC(=O)[C@H](N)c3ccccc3)C(=O)N2[C@H]1C(=O)O [ampicillin]
- MIC [10]: ~500 µg/mL

Compound: CC1(C)S[C@@H]2[C@H](NC(=O)C(C(=O)O)c3ccccc3)C(=O)N2[C@H]1C(=O)O (stereo partly shown) [carbenicillin]
- MIC [5]: ~0.2 µg/mL

Compound: gentamicin
- MIC value ([4]; agent alone): about 0.001 mg/mL
- FicB value (MIC of gentamicin in combination/MIC alone) ([2]; 64 μg/mL Gen.+1 μg/mL CBG): 0.25
- MIC value ([2]; MRSA/VISA strain No 111): about 256 μg/mL
- MIC value ([2]; MRSA/VISA strain No 111, listed as Gen.): 256 µg/mL
- MIC value on established biofilm [6]: over 0.002 mg/mL
- MIC value ([7]; agent alone, OD cutoff ≤0.1): about 0.125 mg/mL
- MBC value ([8]; agent alone, S. aureus ATCC 25923): 250 µg/mL
- MIC value ([9]; agent alone): about 0.002 mg/mL
- FicB value (MIC of gentamicin in combination/MIC alone) ([1]; 32 μg/mL Gen.+1 μg/mL CBD): 0.125
- MIC value ([1]; MRSA/VISA strain No 111, OD cutoff ≤0.1): about 256 μg/mL
- MIC value ([1]; MRSA/VISA strain No 111, OD cutoff ≤0.1, listed as Gen.): 256 µg/mL
- FicB value (MIC of gentamicin in combination/MIC alone) ([3]; 32 μg/mL Gen.+1 μg/mL CBG): 0.25
- MIC value ([3]; MRSA strain 760330509, OD cutoff ≤0.1): about 128 μg/mL
- MIC value ([3]; MRSA strain 760330509, OD cutoff ≤0.1, listed as Gen.): 128 µg/mL
